Source: ChEMBL document CHEMBL5108078, “Design and Synthesis of Phenyl Sulfide-Based Cationic Amphiphiles as Membrane-Targeting Antimicrobial Agents against Gram-Positive Pathogens” (J Med Chem, 2022)
≈ marks a conversion by molar mass, not a printed value.

Legend:
[1] = test system: Staphylococcus aureus; assay: Antibacterial activity against methicillin resistant Staphylococcus aureus N315 assessed as inhibition of bacterial growth incubated for 24 hrs by microbroth dilution method; assay type: functional
[2] = test system: Staphylococcus aureus; assay: Antibacterial activity against methicillin resistant Staphylococcus aureus NCTC10442 assessed as inhibition of bacterial growth incubated for 24 hrs by microbroth dilution method; assay type: functional
[3] = test system: Staphylococcus aureus; assay: Antibacterial activity against Staphylococcus aureus ATCC 29213 assessed as inhibition of bacterial growth incubated for 24 hrs by microbroth dilution method; assay type: functional
[4] = Hemolytic activity in rabbit RBC incubated for 1 hr by microplate reader analysis; assay type: toxicity, cell-based, Oryctolagus cuniculus, Erythrocyte; settings: rabbit red blood cells (erythrocytes)
[5] = test system: Staphylococcus epidermidis; assay: Antibacterial activity against Staphylococcus epidermidis ATCC 12228 assessed as inhibition of bacterial growth incubated for 24 hrs by microbroth dilution method; assay type: functional
[6] = test system: Staphylococcus aureus; assay: Antibacterial activity against Staphylococcus aureus ATCC 15981 assessed as inhibition of bacterial growth incubated for 24 hrs by microbroth dilution method; assay type: functional
[7] = test system: Enterococcus faecalis; assay: Antibacterial activity against Enterococcus faecalis ATCC 29212 assessed as inhibition of bacterial growth incubated for 24 hrs by microbroth dilution method; assay type: functional
[8] = test system: Staphylococcus epidermidis; assay: Antibacterial activity against Staphylococcus epidermidis CMCC26069 assessed as inhibition of bacterial growth incubated for 24 hrs by microbroth dilution method; assay type: functional
[9] = test system: Bacillus subtilis; assay: Antibacterial activity against Bacillus subtilis CMCC63501 assessed as inhibition of bacterial growth incubated for 24 hrs by microbroth dilution method; assay type: functional
[10] = test system: Staphylococcus aureus; assay: Induction of resistant development in Staphylococcus aureus ATCC 29213 assessed as fold increase in MIC at 0.5 MIC after 12 passages by resistant development assay; assay type: functional

Row | Compound | MIC [1] | MIC [2] | MIC [3] | HC50 at 1 h [4] | MIC [5] | MIC [6] | MIC [7] | MIC [8] | MIC [9] | fold change (FC) [10]
1 | CN1CCN(CCCCOc2ccc(C(C)(C)CC(C)(C)C)cc2Sc2cc(C(C)(C)CC(C)(C)C)ccc2OCCCCN2CCN(C)CC2)CC1 | 12.5 µg/mL (≈ 16.6 µM) | 12.5 µg/mL (≈ 16.6 µM) | 12.5 µg/mL (≈ 16.6 µM) | > 200 µg/mL |  |  |  |  |  | 
2 | CC(C)(C)CC(C)(C)c1ccc(OCCCCNC(=N)N)c(Sc2cc(C(C)(C)CC(C)(C)C)ccc2OCCCCNC(=N)N)c1 | 3.12 µg/mL (≈ 4.67 µM) | 3.12 µg/mL (≈ 4.67 µM) | 3.12 µg/mL (≈ 4.67 µM) | > 200 µg/mL |  |  |  |  |  | 
3 | CC(C)(C)CC(C)(C)c1ccc(OCC(=O)N[C@@H](CCCNC(=N)N)C(=O)N[C@@H](CCCNC(=N)N)C(N)=O)c(Sc2cc(C(C)(C)CC(C)(C)C)ccc2OCC(=O)N[C@@H](CCCNC(=N)N)C(=O)N[C@@H](CCCNC(=N)N)C(N)=O)c1 | 6.25 µg/mL (≈ 5.29 µM) | 6.25 µg/mL (≈ 5.29 µM) | 6.25 µg/mL (≈ 5.29 µM) | > 200 µg/mL |  |  |  |  |  | 
4 | Oc1ccc(Cl)cc1Sc1cc(Cl)ccc1O [FENTICLOR] | > 50 µg/mL | > 50 µg/mL | > 50 µg/mL | > 200 µg/mL |  |  |  |  |  | 
5 | CC(C)(C)CC(C)(C)c1ccc(O)c(Sc2cc(C(C)(C)CC(C)(C)C)ccc2OCC(=O)N[C@@H](CCCNC(=N)N)C(N)=O)c1 | 12.5 µg/mL (≈ 19.1 µM) | 12.5 µg/mL (≈ 19.1 µM) | 12.5 µg/mL (≈ 19.1 µM) | > 200 µg/mL |  |  |  |  |  | 
6 | CC(C)(C)CC(C)(C)c1ccc(OCCCCN2CCSCC2)c(Sc2cc(C(C)(C)CC(C)(C)C)ccc2OCCCCN2CCSCC2)c1 | > 50 µg/mL | > 50 µg/mL | > 50 µg/mL | > 200 µg/mL |  |  |  |  |  | 
7 | COC(=O)[C@H](CCCNC(=N)N)NC(=O)COc1c(Sc2cc(C)cc(C(C)(C)C)c2OCC(=O)N[C@@H](CCCNC(=N)N)C(=O)OC)cc(C)cc1C(C)(C)C | 1.56 µg/mL (≈ 1.91 µM) | 3.12 µg/mL (≈ 3.83 µM) | 3.12 µg/mL (≈ 3.83 µM) | > 200 µg/mL | 0.78 µg/mL (≈ 0.957 µM) | 1.56 µg/mL (≈ 1.91 µM) | 12.5 µg/mL (≈ 15.3 µM) | 0.78 µg/mL (≈ 0.957 µM) | 1.56 µg/mL (≈ 1.91 µM) | 
8 | CCCCNCCCCOc1ccc(C(C)(C)CC(C)(C)C)cc1Sc1cc(C(C)(C)CC(C)(C)C)ccc1OCCCCNCCCC | 6.25 µg/mL (≈ 8.96 µM) | 6.25 µg/mL (≈ 8.96 µM) | 6.25 µg/mL (≈ 8.96 µM) | 41.5 µg/mL |  |  |  |  |  | 
9 | COC(=O)[C@H](CCCNC(=N)N)NC(=O)[C@H](CCCNC(=N)N)NC(=O)COc1c(Sc2cc(C)cc(C(C)(C)C)c2OCC(=O)N[C@@H](CCCNC(=N)N)C(=O)N[C@@H](CCCNC(=N)N)C(=O)OC)cc(C)cc1C(C)(C)C | 1.56 µg/mL (≈ 1.38 µM) | 1.56 µg/mL (≈ 1.38 µM) | 1.56 µg/mL (≈ 1.38 µM) | > 200 µg/mL | 0.78 µg/mL (≈ 0.692 µM) | 1.56 µg/mL (≈ 1.38 µM) | 25 µg/mL (≈ 22.2 µM) | 0.78 µg/mL (≈ 0.692 µM) | 0.78 µg/mL (≈ 0.692 µM) | 
10 | CC(C)(C)CC(C)(C)c1ccc(OCCCCN2CCCCC2)c(Sc2cc(C(C)(C)CC(C)(C)C)ccc2OCCCCN2CCCCC2)c1 | 12.5 µg/mL (≈ 17.3 µM) | 25 µg/mL (≈ 34.7 µM) | 12.5 µg/mL (≈ 17.3 µM) | > 200 µg/mL |  |  |  |  |  | 
11 | CC(C)(C)CC(C)(C)c1ccc(OCC(=O)N[C@@H](CCCNC(=N)N)C(N)=O)c(Sc2cc(C(C)(C)CC(C)(C)C)ccc2OCC(=O)N[C@@H](CCCNC(=N)N)C(N)=O)c1 | 1.56 µg/mL (≈ 1.79 µM) | 3.12 µg/mL (≈ 3.6 µM) | 3.12 µg/mL (≈ 3.6 µM) | 183 µg/mL |  |  |  |  |  | 
12 | CC(C)(C)CC(C)(C)c1ccc(OCCCCBr)c(Sc2cc(C(C)(C)CC(C)(C)C)ccc2OCCCCBr)c1 | > 50 µg/mL | > 50 µg/mL | > 50 µg/mL | > 200 µg/mL |  |  |  |  |  | 
13 | CCOC(=O)COc1ccc(C(C)(C)CC(C)(C)C)cc1Sc1cc(C(C)(C)CC(C)(C)C)ccc1OCC(=O)OCC | > 50 µg/mL | > 50 µg/mL | > 50 µg/mL | > 200 µg/mL |  |  |  |  |  | 
14 | Cc1cc(Sc2cc(C)cc(C(C)(C)C)c2OCC(=O)N[C@@H](CCCNC(=N)N)C(N)=O)c(OCC(=O)N[C@@H](CCCNC(=N)N)C(N)=O)c(C(C)(C)C)c1 | 12.5 µg/mL (≈ 15.9 µM) | 12.5 µg/mL (≈ 15.9 µM) | 25 µg/mL (≈ 31.8 µM) | > 200 µg/mL |  |  |  |  |  | 
15 | CCCN(CCC)CCCCOc1ccc(C(C)(C)CC(C)(C)C)cc1Sc1cc(C(C)(C)CC(C)(C)C)ccc1OCCCCN(CCC)CCC | > 50 µg/mL | > 50 µg/mL | > 50 µg/mL | > 200 µg/mL |  |  |  |  |  | 
16 | CN(C)CCCCOc1ccc(C(C)(C)CC(C)(C)C)cc1Sc1cc(C(C)(C)CC(C)(C)C)ccc1OCCCCN(C)C | 1.56 µg/mL (≈ 2.43 µM) | 1.56 µg/mL (≈ 2.43 µM) | 1.56 µg/mL (≈ 2.43 µM) | 23.2 µg/mL |  |  |  |  |  | 
17 | CCn1cc(C(=O)O)c(=O)c2cc(F)c(N3CCNCC3)cc21 |  |  |  |  |  |  |  |  |  | 32
18 | CCCCCCNCCCCOc1ccc(C(C)(C)CC(C)(C)C)cc1Sc1cc(C(C)(C)CC(C)(C)C)ccc1OCCCCNCCCCCC | > 50 µg/mL | > 50 µg/mL | > 50 µg/mL | > 200 µg/mL |  |  |  |  |  | 
19 | CCNCCCCOc1ccc(C(C)(C)CC(C)(C)C)cc1Sc1cc(C(C)(C)CC(C)(C)C)ccc1OCCCCNCC | 1.56 µg/mL (≈ 2.43 µM) | 1.56 µg/mL (≈ 2.43 µM) | 1.56 µg/mL (≈ 2.43 µM) | 30.8 µg/mL |  |  |  |  |  | 
20 | COC(=O)[C@H](CCCNC(=N)N)NC(=O)COc1ccc(Cl)cc1Sc1cc(Cl)ccc1OCC(=O)N[C@@H](CCCNC(=N)N)C(=O)OC | 12.5 µg/mL (≈ 16.8 µM) | 12.5 µg/mL (≈ 16.8 µM) | 25 µg/mL (≈ 33.6 µM) | > 200 µg/mL |  |  |  |  |  | 
21 | CCCCN(CCCC)CCCCOc1ccc(C(C)(C)CC(C)(C)C)cc1Sc1cc(C(C)(C)CC(C)(C)C)ccc1OCCCCN(CCCC)CCCC | > 50 µg/mL | > 50 µg/mL | > 50 µg/mL | > 200 µg/mL |  |  |  |  |  | 
22 | COC(=O)[C@H](CCCNC(=N)N)NC(=O)COc1ccc(C(C)(C)CC(C)(C)C)cc1Sc1cc(C(C)(C)CC(C)(C)C)ccc1O | 3.12 µg/mL (≈ 4.66 µM) | 1.56 µg/mL (≈ 2.33 µM) | 12.5 µg/mL (≈ 18.6 µM) | 130 µg/mL |  |  |  |  |  | 
23 | COC(=O)[C@H](CCCCN)NC(=O)COc1ccc(C(C)(C)CC(C)(C)C)cc1Sc1cc(C(C)(C)CC(C)(C)C)ccc1OCC(=O)N[C@@H](CCCCN)C(=O)OC | 1.56 µg/mL (≈ 1.85 µM) | 3.12 µg/mL (≈ 3.71 µM) | 3.12 µg/mL (≈ 3.71 µM) | 162 µg/mL |  |  |  |  |  | 
24 | COC(=O)[C@H](CCCNC(=N)N)NC(=O)[C@H](CCCNC(=N)N)NC(=O)COc1ccc(C(C)(C)CC(C)(C)C)cc1Sc1cc(C(C)(C)CC(C)(C)C)ccc1OCC(=O)N[C@@H](CCCNC(=N)N)C(=O)N[C@@H](CCCNC(=N)N)C(=O)OC | 1.56 µg/mL (≈ 1.29 µM) | 3.12 µg/mL (≈ 2.58 µM) | 1.56 µg/mL (≈ 1.29 µM) | > 200 µg/mL | 1.56 µg/mL (≈ 1.29 µM) | 3.12 µg/mL (≈ 2.58 µM) | 3.12 µg/mL (≈ 2.58 µM) | 1.56 µg/mL (≈ 1.29 µM) | 1.56 µg/mL (≈ 1.29 µM) | 
25 | CCOC(=O)COc1ccc(C(C)(C)CC(C)(C)C)cc1Sc1cc(C(C)(C)CC(C)(C)C)ccc1O | > 50 µg/mL | > 50 µg/mL | > 50 µg/mL | > 200 µg/mL |  |  |  |  |  | 
26 | CC(C)(C)CC(C)(C)c1ccc(O)c(Sc2cc(C(C)(C)CC(C)(C)C)ccc2O)c1 | > 50 µg/mL | > 50 µg/mL | > 50 µg/mL | > 200 µg/mL |  |  |  |  |  | 
27 | Cc1cc(Sc2cc(C)cc(C(C)(C)C)c2O)c(O)c(C(C)(C)C)c1 | > 50 µg/mL | > 50 µg/mL | > 50 µg/mL | > 200 µg/mL |  |  |  |  |  | 
28 | COC(=O)[C@H](CCCNC(=N)N)NC(=O)[C@H](CCCNC(=N)N)NC(=O)[C@H](CCCNC(=N)N)NC(=O)COc1ccc(C(C)(C)CC(C)(C)C)cc1Sc1cc(C(C)(C)CC(C)(C)C)ccc1OCC(=O)N[C@@H](CCCNC(=N)N)C(=O)N[C@@H](CCCNC(=N)N)C(=O)N[C@@H](CCCNC(=N)N)C(=O)OC | 6.25 µg/mL (≈ 4.1 µM) | 3.12 µg/mL (≈ 2.05 µM) | 6.25 µg/mL (≈ 4.1 µM) | > 200 µg/mL |  |  |  |  |  | 
29 | CCN(CC)CCCCOc1ccc(C(C)(C)CC(C)(C)C)cc1Sc1cc(C(C)(C)CC(C)(C)C)ccc1OCCCCN(CC)CC | 1.56 µg/mL (≈ 2.24 µM) | 3.12 µg/mL (≈ 4.48 µM) | 3.12 µg/mL (≈ 4.48 µM) | 67.9 µg/mL |  |  |  |  |  | 
